One compound from publication PMC7180948, “New Insights into 4-Anilinoquinazolines as Inhibitors of Cardiac Troponin I–Interacting Kinase (TNNi3K)” (Molecules, 2020) can be followed below.

Broadly, the inhibition is how much of the control response was suppressed.

Common to all, as to assay: biochemical
Design in all cases: KINOMEscan competition binding panel (Eurofins DiscoverX), single concentration, percent inhibition
Holding throughout (details): read-out: 15 at 1 µM % inhibition

Assay [1] addresses T1, ABL1(Q252H)-phosphorylated (Homo sapiens, UniProt P00519, Q252H).
T1 construct: phosphorylated
Put shortly:
(§1)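 KINOMEscan binding panel of >400 kinases, run by Eurofins DiscoverX, with compounds tested at a single concentration of 1 µM.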

Assay [2] deals with ABL2 (Homo sapiens, UniProt P42684). Put shortly: as §1
For assay [3], the target named is ACVR2A (Homo sapiens, UniProt P27037). Put shortly: as §1
Assay [4] has as its target CSF1R-autoinhibited (Homo sapiens, UniProt P07333). Put shortly:
as §1

Assay [5] concerns the target T2, CTK (Homo sapiens, UniProt P42679).
T2 construct: gene MATK
An outline of the steps:
as §1

Assay [6] has as its target EGFR (Homo sapiens, UniProt P00533). An outline of the steps: as §1
In assay [7] the target is FLT3(N841I) (Homo sapiens, UniProt P36888, N841I). An outline of the steps: as §1
The target of assay [8] is FLT3-autoinhibited (Homo sapiens, UniProt P36888). An outline of the steps: as §1
The target in assay [9] is T3, JAK1(JH2domain-pseudokinase) (Homo sapiens, UniProt P23458).
T3 construct: JH2domain-pseudokinase
An outline of the steps:
as §1

Assay [10] deals with T4, JAK2(JH1domain-catalytic) (Homo sapiens, UniProt O60674).
T4 construct: JH1domain-catalytic
Put shortly: as §1

The target of assay [11] is T5, JNK3 (Homo sapiens, UniProt P53779).
T5 construct: gene MAPK10
T5 sequence (P53779 whole entry): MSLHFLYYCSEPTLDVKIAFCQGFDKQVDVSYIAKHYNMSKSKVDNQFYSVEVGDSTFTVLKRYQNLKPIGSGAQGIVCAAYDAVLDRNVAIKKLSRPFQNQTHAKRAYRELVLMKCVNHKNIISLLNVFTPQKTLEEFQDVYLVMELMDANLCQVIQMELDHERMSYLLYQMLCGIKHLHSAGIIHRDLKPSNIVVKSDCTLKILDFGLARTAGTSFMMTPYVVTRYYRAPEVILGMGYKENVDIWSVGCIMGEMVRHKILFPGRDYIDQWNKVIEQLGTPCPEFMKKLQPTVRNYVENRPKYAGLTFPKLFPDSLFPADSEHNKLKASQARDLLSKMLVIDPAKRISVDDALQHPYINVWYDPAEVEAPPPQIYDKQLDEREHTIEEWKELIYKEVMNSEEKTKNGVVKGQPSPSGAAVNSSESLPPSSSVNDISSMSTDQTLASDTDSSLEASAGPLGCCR
Put shortly:
as §1

The target in assay [12] is MAK (Homo sapiens, UniProt P20794). An outline of the steps:
as §1

Assay [13] has as its target T6, MEK6 (Homo sapiens, UniProt P52564).
T6 construct: gene MAP2K6
Put shortly:
as §1

In assay [14] the target is MERTK (Homo sapiens, UniProt Q12866). Put shortly:
as §1

Assay [15] deals with MET(M1250T) (Homo sapiens, UniProt P08581, M1250T). Put shortly: as §1
Sequence of MET(M1250T) (P08581 whole entry M1250T): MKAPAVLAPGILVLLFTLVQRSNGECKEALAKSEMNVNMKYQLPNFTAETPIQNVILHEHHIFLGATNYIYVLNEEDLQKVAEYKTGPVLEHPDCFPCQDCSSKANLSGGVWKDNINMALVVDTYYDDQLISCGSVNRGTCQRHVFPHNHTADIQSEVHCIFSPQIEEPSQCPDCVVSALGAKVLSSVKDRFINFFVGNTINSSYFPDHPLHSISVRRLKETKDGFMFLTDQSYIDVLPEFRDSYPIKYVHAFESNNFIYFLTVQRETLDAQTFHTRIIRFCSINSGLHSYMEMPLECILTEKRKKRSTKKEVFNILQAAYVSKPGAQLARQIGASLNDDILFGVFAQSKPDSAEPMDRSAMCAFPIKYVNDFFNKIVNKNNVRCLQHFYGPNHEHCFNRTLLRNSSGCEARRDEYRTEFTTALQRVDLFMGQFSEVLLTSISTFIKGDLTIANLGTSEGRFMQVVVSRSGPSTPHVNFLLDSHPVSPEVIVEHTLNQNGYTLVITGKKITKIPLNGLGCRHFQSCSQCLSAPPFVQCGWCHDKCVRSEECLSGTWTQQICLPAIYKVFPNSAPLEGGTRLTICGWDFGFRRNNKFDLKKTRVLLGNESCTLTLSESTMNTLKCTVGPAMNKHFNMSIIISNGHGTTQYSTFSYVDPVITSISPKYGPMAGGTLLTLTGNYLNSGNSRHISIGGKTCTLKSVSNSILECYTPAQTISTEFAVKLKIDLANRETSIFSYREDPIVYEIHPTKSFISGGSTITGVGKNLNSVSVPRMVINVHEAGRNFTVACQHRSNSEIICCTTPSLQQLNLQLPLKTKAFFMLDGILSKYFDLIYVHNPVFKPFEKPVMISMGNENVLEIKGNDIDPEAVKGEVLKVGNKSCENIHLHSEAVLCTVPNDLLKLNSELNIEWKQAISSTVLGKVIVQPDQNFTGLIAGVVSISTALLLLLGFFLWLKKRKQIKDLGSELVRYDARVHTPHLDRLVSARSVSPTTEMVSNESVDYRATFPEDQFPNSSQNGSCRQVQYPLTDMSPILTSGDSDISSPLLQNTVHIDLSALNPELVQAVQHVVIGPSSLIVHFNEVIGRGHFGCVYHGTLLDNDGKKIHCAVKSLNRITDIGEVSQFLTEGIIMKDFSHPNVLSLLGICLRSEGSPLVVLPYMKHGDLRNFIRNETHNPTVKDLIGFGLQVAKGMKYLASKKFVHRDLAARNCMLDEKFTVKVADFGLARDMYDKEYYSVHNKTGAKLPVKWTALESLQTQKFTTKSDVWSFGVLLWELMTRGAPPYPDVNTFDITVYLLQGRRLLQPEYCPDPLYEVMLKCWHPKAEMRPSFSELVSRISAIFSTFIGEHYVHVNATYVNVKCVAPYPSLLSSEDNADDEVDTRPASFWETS
Assay [16] has as its target MYO3B (Homo sapiens, UniProt Q8WXR4). An outline of the steps:
as §1

For assay [17], the target named is PAK1 (Homo sapiens, UniProt Q13153). Put shortly: as §1
The target of assay [18] is T7, PFTAIRE2 (Homo sapiens, UniProt Q96Q40).
T7 construct: gene CDK15
T7 sequence (Q96Q40 whole entry): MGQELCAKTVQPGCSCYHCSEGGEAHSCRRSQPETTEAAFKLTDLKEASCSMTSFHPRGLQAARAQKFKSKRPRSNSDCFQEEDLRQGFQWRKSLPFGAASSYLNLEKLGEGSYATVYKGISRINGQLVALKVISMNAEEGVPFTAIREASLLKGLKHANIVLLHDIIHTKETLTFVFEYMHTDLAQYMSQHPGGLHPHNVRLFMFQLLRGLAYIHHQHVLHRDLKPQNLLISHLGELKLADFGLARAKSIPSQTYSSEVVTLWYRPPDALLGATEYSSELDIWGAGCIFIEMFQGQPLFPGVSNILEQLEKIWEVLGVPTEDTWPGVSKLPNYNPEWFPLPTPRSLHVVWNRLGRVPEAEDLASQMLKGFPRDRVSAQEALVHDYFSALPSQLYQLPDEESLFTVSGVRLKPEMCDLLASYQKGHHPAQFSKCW
An outline of the steps:
as §1

Assay [19] deals with PIK3CA(Q546K) (Homo sapiens, UniProt P42336, Q546K). Put shortly: as §1
Assay [20] has as its target T8, PIP5K2C (Homo sapiens, UniProt Q8TBX8).
T8 construct: gene PIP4K2C
Put shortly: as §1

The target of assay [21] is T9, PRKR (Homo sapiens, UniProt P19525).
T9 construct: gene EIF2AK2
An outline of the steps:
as §1

The target in assay [22] is RIPK1 (Homo sapiens, UniProt Q13546). Put shortly: as §1
The target in assay [23] is T10, RIPK5 (Homo sapiens, UniProt Q6XUX3).
T10 construct: gene DSTYK
Put shortly: as §1

Assay [24] deals with SRPK3 (Homo sapiens, UniProt Q9UPE1). An outline of the steps: as §1
Sequence of SRPK3 (Q9UPE1 whole entry): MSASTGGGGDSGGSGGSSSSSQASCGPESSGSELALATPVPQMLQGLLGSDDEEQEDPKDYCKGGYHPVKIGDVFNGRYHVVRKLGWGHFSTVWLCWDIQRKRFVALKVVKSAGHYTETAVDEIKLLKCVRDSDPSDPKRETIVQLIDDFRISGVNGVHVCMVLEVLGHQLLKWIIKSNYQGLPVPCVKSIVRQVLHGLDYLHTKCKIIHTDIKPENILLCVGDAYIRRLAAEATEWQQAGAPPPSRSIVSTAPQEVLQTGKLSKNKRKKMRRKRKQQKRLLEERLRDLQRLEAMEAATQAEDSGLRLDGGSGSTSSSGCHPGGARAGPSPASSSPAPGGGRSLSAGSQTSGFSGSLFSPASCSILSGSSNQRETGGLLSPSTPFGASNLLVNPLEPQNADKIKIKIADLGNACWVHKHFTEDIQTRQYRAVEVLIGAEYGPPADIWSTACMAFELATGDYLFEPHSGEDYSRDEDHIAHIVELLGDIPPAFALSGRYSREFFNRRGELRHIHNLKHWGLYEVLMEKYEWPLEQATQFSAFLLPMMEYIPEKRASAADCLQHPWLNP

Sequence of MAK (P20794 whole entry): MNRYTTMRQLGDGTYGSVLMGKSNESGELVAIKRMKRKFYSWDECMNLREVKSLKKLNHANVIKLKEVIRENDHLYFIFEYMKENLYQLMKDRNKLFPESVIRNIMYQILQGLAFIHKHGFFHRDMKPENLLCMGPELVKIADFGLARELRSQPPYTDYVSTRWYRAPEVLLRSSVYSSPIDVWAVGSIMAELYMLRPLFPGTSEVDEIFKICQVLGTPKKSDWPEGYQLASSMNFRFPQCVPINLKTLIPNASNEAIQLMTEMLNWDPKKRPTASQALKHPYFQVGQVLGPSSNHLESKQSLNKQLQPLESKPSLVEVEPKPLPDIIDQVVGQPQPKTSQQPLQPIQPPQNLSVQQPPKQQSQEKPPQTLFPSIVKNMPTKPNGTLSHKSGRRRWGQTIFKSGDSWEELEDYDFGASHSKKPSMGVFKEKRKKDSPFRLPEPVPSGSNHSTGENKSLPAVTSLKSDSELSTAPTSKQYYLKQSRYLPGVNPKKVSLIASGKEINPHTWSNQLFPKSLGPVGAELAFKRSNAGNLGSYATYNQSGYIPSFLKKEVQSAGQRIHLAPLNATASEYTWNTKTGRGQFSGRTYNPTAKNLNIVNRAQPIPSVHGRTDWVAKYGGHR
Sequence of MERTK (Q12866 whole entry): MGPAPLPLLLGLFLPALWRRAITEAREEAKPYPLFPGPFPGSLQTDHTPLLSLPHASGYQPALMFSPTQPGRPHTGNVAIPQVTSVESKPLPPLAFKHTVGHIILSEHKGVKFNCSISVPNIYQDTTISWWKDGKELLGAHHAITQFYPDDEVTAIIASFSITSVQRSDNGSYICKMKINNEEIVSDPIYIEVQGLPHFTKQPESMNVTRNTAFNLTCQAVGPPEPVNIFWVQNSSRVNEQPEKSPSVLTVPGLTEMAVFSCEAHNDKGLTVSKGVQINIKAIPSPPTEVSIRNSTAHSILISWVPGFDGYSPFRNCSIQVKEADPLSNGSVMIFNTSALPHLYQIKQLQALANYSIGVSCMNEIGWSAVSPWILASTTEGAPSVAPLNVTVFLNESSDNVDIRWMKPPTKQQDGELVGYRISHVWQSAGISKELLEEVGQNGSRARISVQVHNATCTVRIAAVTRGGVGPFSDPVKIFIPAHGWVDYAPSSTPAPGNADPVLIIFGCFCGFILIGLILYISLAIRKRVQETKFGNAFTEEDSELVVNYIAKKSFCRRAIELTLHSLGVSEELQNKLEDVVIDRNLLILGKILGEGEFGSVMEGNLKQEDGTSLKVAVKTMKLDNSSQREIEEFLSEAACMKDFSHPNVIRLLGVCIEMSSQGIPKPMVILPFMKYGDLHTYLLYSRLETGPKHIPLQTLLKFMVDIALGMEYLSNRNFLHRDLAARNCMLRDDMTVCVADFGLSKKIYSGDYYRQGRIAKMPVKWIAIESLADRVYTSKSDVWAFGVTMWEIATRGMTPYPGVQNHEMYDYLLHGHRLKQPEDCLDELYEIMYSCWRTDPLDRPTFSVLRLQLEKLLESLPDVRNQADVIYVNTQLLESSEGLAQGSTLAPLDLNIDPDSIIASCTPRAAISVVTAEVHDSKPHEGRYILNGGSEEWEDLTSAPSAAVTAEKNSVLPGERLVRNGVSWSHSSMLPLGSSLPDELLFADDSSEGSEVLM
T2 sequence (P42679 whole entry): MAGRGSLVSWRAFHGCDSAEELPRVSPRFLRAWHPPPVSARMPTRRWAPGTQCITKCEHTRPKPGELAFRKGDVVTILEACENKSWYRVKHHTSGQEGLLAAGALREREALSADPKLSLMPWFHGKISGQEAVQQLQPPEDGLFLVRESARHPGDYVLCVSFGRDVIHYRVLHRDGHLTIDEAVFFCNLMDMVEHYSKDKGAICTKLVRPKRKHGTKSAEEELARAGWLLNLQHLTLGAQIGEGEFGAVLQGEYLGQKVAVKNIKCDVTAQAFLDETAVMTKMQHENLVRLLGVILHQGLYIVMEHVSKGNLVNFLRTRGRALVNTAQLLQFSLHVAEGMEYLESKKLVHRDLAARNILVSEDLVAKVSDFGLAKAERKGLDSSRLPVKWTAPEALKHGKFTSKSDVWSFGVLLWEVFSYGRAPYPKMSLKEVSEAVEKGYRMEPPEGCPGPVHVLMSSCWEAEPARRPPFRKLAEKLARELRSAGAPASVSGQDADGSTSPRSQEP

For the compound `CNS(=O)(=O)c1ccc(N(C)C)c(Nc2nc(C)nc3cc(OC)c(OC)cc23)c1` [compound 15, 3-((6,7-dimethoxy-2-methylquinazolin-4-yl)amino)-4-(dimethylamino)-N-methylbenzenesulfonamide], the inhibition at 1 µM in assay [1] came to 34%; in assay [2] it was 0%; in [3] it was 0%; in assay [4] it was 32%; in [5], 0%; in assay [6], 0%. Also, the inhibition at 1 µM in [7] was 0%; in assay [8] it was 0%; in assay [9], 26%; in assay [10] it was 0%; in [11], 0%; in assay [12] it was 8%. In addition, the inhibition at 1 µM in [13] was found to be 0%; in [14], 0%; in assay [15] it was 0%; in assay [16], 15%; in [17], 1%; in assay [18], 5%. Moreover, the inhibition at 1 µM was determined as 37% in assay [19]; 18% in assay [20]; 7% in assay [21]; 37% in assay [22]; 12% in [23]; 1% in assay [24].
